{"source": "patent US10383859B2", "about": "“Benzo[d]thiazole derivative or salt thereof, and pharmaceutical composition including same” (Yuhan Corporation, priority 2016, dated 2019)", "system": "A549 cells", "assay": "Cell migration assay (24-well transwell, laminin)", "format": "cell-based, human", "conditions": "Homo sapiens, A549, 6 h, laminin 10 μg/mL in lower well, test compounds 0.39˜100 μM, migrated cells counted, read-out: Inhibitory activity against cell migration", "experimental": "Cell migration was measured with a 24-well transwell having a polycarbonate membrane (8.0 μm pore size, Costar) at the bottom of the upper chamber. Each lower well was treated with laminin (10 μg/mL) and test compounds in predetermined concentrations (0.39˜100 μM) along with a serum-free RPMI1640 medium. A549 cells (Korean Cell Line Bank) were suspended in a serum-free RPMI1640 medium at a concentration of 1×10^6 cells/mL and then the test compounds were added thereto at the indicated concentrations. Each resulting solution (100 μL) was added to the upper chamber. The cells were cultured at 37° C. for 6 hours in a CO2 incubator. The upper chamber was taken out and then the cells were fixed with PBS containing 70% methyl alcohol for 10 minutes, followed by washing with PBS twice. The cells were stained with hematoxylin (Sigma) for 10 minutes and then washed with distilled water. The non-migrated cells were removed from the upper portion of the polycarbonate membrane with a cotton swab. The membranes were excised and separated from the chamber, and then mounted to a slide using a gel mount reagent (Biomeda, USA). The migrated cells (attached to the lower face of the membrane) were counted at three randomly selected sites under a microscope (×20). The cell counting was performed with the Image J program. From the counted cell numbers, each IC50 value was calculated by non-linear regression curve fit using the “GraphPad Prism” program.\nThe cells are pulled by laminin residing in the lower chamber and then passed through the polycarbonate membrane, so as to attach to the lower face of the membrane."}
{"smiles": "COc1cc(C)c(CCN(c2nc3cccc(F)c3s2)C(C)c2ccc(C(=O)O)cc2)cc1C", "note": "(stereo not shown) [Example 64, 4-(1-{(7-fluorobenzo[d]thiazol-2-yl)[2-(4-methoxy-2,5-dimethylphenyl)ethyl]amino}ethyl)benzoic acid]", "values": [{"measurement": "IC50", "result": "< 1", "unit": "µM"}]}
{"smiles": "COc1ccc(CCN(c2nc3cccc(F)c3s2)C(C)c2ccc(C(=O)O)cc2)cc1C", "note": "(stereo not shown) [Example 65, 4-(1-{(7-fluorobenzo[d]thiazol-2-yl)[2-(4-methoxy-3-methylphenyl)ethyl]amino}ethyl)benzoic acid]", "values": [{"measurement": "IC50", "result": "< 1", "unit": "µM"}]}
{"smiles": "COc1ccc(CCN(c2nc3cccc(F)c3s2)C(C)c2ccc(C(=O)O)cc2)c(C)c1", "note": "(stereo not shown) [Example 66, 4-(1-{(7-fluorobenzo[d]thiazol-2-yl)[2-(4-methoxy-2-methylphenyl)ethyl]amino}ethyl)benzoic acid]", "values": [{"measurement": "IC50", "result": "< 1", "unit": "µM"}]}
{"smiles": "COc1cc(F)c(CCN(c2nc3cccc(F)c3s2)C(C)c2ccc(C(=O)O)cc2)c(F)c1", "note": "(stereo not shown) [Example 67, 4-(1-{[2-(2,6-difluoro-4-methoxyphenyl)ethyl](7-fluorobenzo[d]thiazol-2-yl)amino}ethyl)benzoic acid]", "values": [{"measurement": "IC50", "result": "< 1", "unit": "µM"}]}
{"smiles": "CCC(c1ccc(C(=O)O)cc1)N(CCc1ccc(OC)c(F)c1F)c1nc2cccc(F)c2s1", "note": "(stereo not shown) [Example 68, 4-(1-{[2-(2,3-difluoro-4-methoxyphenyl)ethyl](7-fluorobenzo[d]thiazol-2-yl)amino}propyl)benzoic acid]", "values": [{"measurement": "IC50", "result": "< 1", "unit": "µM"}]}
{"smiles": "CCC(c1ccc(C(=O)O)cc1)N(CCc1cc(F)c(OC)cc1F)c1nc2cccc(F)c2s1", "note": "(stereo not shown) [Example 69, 4-(1-{[2-(2,5-difluoro-4-methoxyphenyl)ethyl](7-fluorobenzo[d]thiazol-2-yl)amino}propyl)benzoic acid]", "values": [{"measurement": "IC50", "result": "> 10", "unit": "µM"}]}
{"smiles": "CCC(c1ccc(C(=O)O)cc1)N(CCc1ccc(OC)cc1Cl)c1nc2cccc(F)c2s1", "note": "(stereo not shown) [Example 70, 4-(1-{[2-(2-chloro-4-methoxyphenyl)ethyl](7-fluorobenzo[d]thiazol-2-yl)amino}propyl)benzoic acid]", "values": [{"measurement": "IC50", "result": "> 10", "unit": "µM"}]}
{"smiles": "CCC(c1ccc(C(=O)O)cc1)N(CCc1ccc(OC)c(C)c1C)c1nc2cccc(F)c2s1", "note": "(stereo not shown) [Example 71, 4-(1-{(7-fluorobenzo[d]thiazol-2-yl)[2-(4-methoxy-2,3-dimethylphenyl)ethyl]amino}propyl)benzoic acid]", "values": [{"measurement": "IC50", "result": "> 10", "unit": "µM"}]}
{"smiles": "CCC(c1ccc(C(=O)O)cc1)N(CCc1cc(C)c(OC)cc1C)c1nc2cccc(F)c2s1", "note": "(stereo not shown) [Example 72, 4-(1-{(7-fluorobenzo[d]thiazol-2-yl)[2-(4-methoxy-2,5-dimethylphenyl)ethyl]amino}propyl)benzoic acid]", "values": [{"measurement": "IC50", "result": "> 10", "unit": "µM"}]}
{"smiles": "CCC(c1ccc(C(=O)O)cc1)N(CCc1ccc(OC)c(C)c1)c1nc2cccc(F)c2s1", "note": "(stereo not shown) [Example 73, 4-(1-{(7-fluorobenzo[d]thiazol-2-yl)[2-(4-methoxy-3-methylphenyl)ethyl]amino}propyl)benzoic acid]", "values": [{"measurement": "IC50", "result": "> 10", "unit": "µM"}]}
{"smiles": "CCC(c1ccc(C(=O)O)cc1)N(CCc1ccc(OC)cc1C)c1nc2cccc(F)c2s1", "note": "(stereo not shown) [Example 74, 4-(1-{(7-fluorobenzo[d]thiazol-2-yl)[2-(4-methoxy-2-methylphenyl)ethyl]amino}propyl)benzoic acid]", "values": [{"measurement": "IC50", "result": "> 10", "unit": "µM"}]}
{"smiles": "CCC(c1ccc(C(=O)O)cc1)N(CCc1c(F)cc(OC)cc1F)c1nc2cccc(F)c2s1", "note": "(stereo not shown) [Example 75, 4-(1-{[2-(2,6-difluoro-4-methoxyphenyl)ethyl](7-fluorobenzo[d]thiazol-2-yl)amino}propyl)benzoic acid]", "values": [{"measurement": "IC50", "result": "> 10", "unit": "µM"}]}
{"smiles": "CCC(c1ccc(C(=O)O)cc1)N(CCc1cc(C(C)C)c(OC)cc1C)c1nc2cccc(F)c2s1", "note": "(stereo not shown) [Example 76, 4-{1-[(7-fluorobenzo[d]thiazol-2-yl){2-[4-methoxy-2-methyl-5-(propan-2-yl)phenyl]ethyl}amino]propyl}benzoic acid]", "values": [{"measurement": "IC50", "result": "> 10", "unit": "µM"}]}
{"smiles": "COc1ccc(CCN(Cc2ccc(C(=O)O)c(O)c2)c2nc3cccc(F)c3s2)cc1", "note": "[Example 77, 4-({(7-fluorobenzo[d]thiazol-2-yl)[2-(4-methoxyphenyl)ethyl]amino}methyl)-2-hydroxybenzoic acid]", "values": [{"measurement": "IC50", "result": "< 1", "unit": "µM"}]}
{"smiles": "COc1ccc(CCN(Cc2ccc(C(=O)O)cc2Cl)c2nc3cccc(F)c3s2)cc1", "note": "[Example 78, 3-chloro-4-({(7-fluorobenzo[d]thiazol-2-yl)[2-(4-methoxyphenyl)ethyl]amino}methyl)benzoic acid]", "values": [{"measurement": "IC50", "result": "< 1", "unit": "µM"}]}
{"smiles": "COc1ccc(CCN(Cc2ccc(C(=O)O)cc2)c2nc3ccc([N+](=O)[O-])cc3s2)cc1", "note": "[Example 79, 4-({[2-(4-methoxyphenyl)ethyl](6-nitro-benzo[d]thiazol-2-yl)amino}methyl)benzoic acid]", "values": [{"measurement": "IC50", "result": "< 1", "unit": "µM"}]}
{"smiles": "COc1ccc(CCN(Cc2ccc(C(=O)O)cc2)c2nc3cccc([N+](=O)[O-])c3s2)cc1", "note": "[Example 80, 4-({[2-(4-methoxyphenyl)ethyl](7-nitro-benzo[d]thiazol-2-yl)amino}methyl)benzoic acid]", "values": [{"measurement": "IC50", "result": "< 1", "unit": "µM"}]}
{"smiles": "COc1ccc(CCN(Cc2ccc(C(=O)O)cc2)c2nc3ccc(N)cc3s2)cc1", "note": "[Example 81, 4-({(6-amino-benzo[d]thiazol-2-yl)[2-(4-methoxyphenyl)ethyl]amino}methyl)benzoic acid]", "values": [{"measurement": "IC50", "result": "< 1", "unit": "µM"}]}
{"smiles": "COc1ccc(CCN(Cc2ccc(C(=O)O)cc2)c2nc3cccc(N)c3s2)cc1", "note": "[Example 82, 4-({(7-amino-benzo[d]thiazol-2-yl)[2-(4-methoxyphenyl)ethyl]amino}methyl)benzoic acid]", "values": [{"measurement": "IC50", "result": "< 1", "unit": "µM"}]}
{"smiles": "COc1ccc(CCN(Cc2ccc(C(=O)O)cc2)c2nc3cccc(Cl)c3s2)cc1", "note": "[Example 83, 4-({(7-chloro-benzo[d]thiazol-2-yl)[2-(4-methoxyphenyl)ethyl]amino}methyl)benzoic acid]", "values": [{"measurement": "IC50", "result": "< 1", "unit": "µM"}]}
{"smiles": "COc1ccc(CCN(Cc2ccc(C(=O)O)cc2)c2nc3ccc(Cl)cc3s2)cc1", "note": "[Example 84, 4-({(6-chloro-benzo[d]thiazol-2-yl)[2-(4-methoxyphenyl)ethyl]amino}methyl)benzoic acid]", "values": [{"measurement": "IC50", "result": "< 1", "unit": "µM"}]}
{"smiles": "COc1ccc(CCN(Cc2ccc(C(=O)O)cc2)c2nc3cc(Cl)ccc3s2)cc1", "note": "[Example 85, 4-({(5-chloro-benzo[d]thiazol-2-yl)[2-(4-methoxyphenyl)ethyl]amino}methyl)benzoic acid]", "values": [{"measurement": "IC50", "result": "< 1", "unit": "µM"}]}
{"smiles": "COc1ccc(CCN(Cc2ccc(C(=O)O)cc2)c2nc3cc(F)c(F)cc3s2)cc1", "note": "[Example 86, 4-({(5,6-difluorobenzo[d]thiazol-2-yl)[2-(4-methoxyphenyl)ethyl]amino}methyl)benzoic acid]", "values": [{"measurement": "IC50", "result": "< 1", "unit": "µM"}]}
{"smiles": "COc1ccc(CCN(Cc2ccc(C(=O)O)cc2)c2nc3cc(F)c(F)c(F)c3s2)cc1", "note": "[Example 87, 4-{[[2-(4-methoxyphenyl)ethyl](5,6,7-trifluorobenzo[d]thiazol-2-yl)amino]methyl}benzoic acid]", "values": [{"measurement": "IC50", "result": "< 1", "unit": "µM"}]}
{"smiles": "COc1ccc(CCN(Cc2ccc(C(=O)O)cc2)c2nc3ccc(Cl)c(F)c3s2)cc1", "note": "[Example 88, 4-({(6-chloro-7-fluorobenzo[d]thiazol-2-yl)[2-(4-methoxyphenyl)ethyl]amino}methyl)benzoic acid]", "values": [{"measurement": "IC50", "result": "< 1", "unit": "µM"}]}
{"smiles": "COc1ccc(CCN(Cc2ccc(C(=O)O)cc2)c2nc3cccc(C(F)(F)F)c3s2)cc1", "note": "[Example 89, 4-{[[2-(4-methoxyphenyl)ethyl](7-trifluoromethyl-benzo[d]thiazol-2-yl)amino]methyl}benzoic acid]", "values": [{"measurement": "IC50", "result": "< 1", "unit": "µM"}]}
{"smiles": "COc1ccc(CCN(Cc2ccc(C(=O)O)cc2)c2nc3ccc(F)c(F)c3s2)cc1", "note": "[Example 90, 4-({(6,7-difluorobenzo[d]thiazol-2-yl)-[2-(4-methoxyphenyl)ethyl]amino}methyl)benzoic acid]", "values": [{"measurement": "IC50", "result": "< 1", "unit": "µM"}]}
{"smiles": "COc1ccc(CCN(Cc2ccc(C(=O)O)cc2)c2nc3cc(Br)ccc3s2)cc1", "note": "[Example 91, 4-({(5-bromo-benzo[d]thiazol-2-yl)[2-(4-methoxyphenyl)ethyl]amino}methyl)benzoic acid]", "values": [{"measurement": "IC50", "result": "< 1", "unit": "µM"}]}
{"smiles": "COc1ccc(CCN(Cc2ccc(C(=O)O)cc2)c2nc3ccc(F)cc3s2)cc1", "note": "[Example 92, 4-({(6-fluorobenzo[d]thiazol-2-yl)[2-(4-methoxyphenyl)ethyl]amino}methyl)benzoic acid]", "values": [{"measurement": "IC50", "result": "< 1", "unit": "µM"}]}
{"smiles": "COc1ccc(CCN(Cc2ccc(C(=O)O)cc2)c2nc3cc(F)cc(F)c3s2)cc1", "note": "[Example 93, 4-({(5,7-difluorobenzo[d]thiazol-2-yl)[2-(4-methoxyphenyl)ethyl]amino}methyl)benzoic acid]", "values": [{"measurement": "IC50", "result": "< 1", "unit": "µM"}]}
{"smiles": "COc1ccc(CCN(Cc2ccc(C(=O)O)cc2)c2nc3ccc(C)c(F)c3s2)cc1", "note": "[Example 94, 4-({(7-fluoro-6-methyl-benzo[d]thiazol-2-yl)[2-(4-methoxyphenyl)ethyl]amino}methyl)benzoic acid]", "values": [{"measurement": "IC50", "result": "< 1", "unit": "µM"}]}
{"smiles": "COc1ccc(CCN(Cc2ccc(C(=O)O)cc2)c2nc3c(F)cc(F)cc3s2)cc1", "note": "[Example 95, 4-({(4,6-difluorobenzo[d]thiazol-2-yl)[2-(4-methoxyphenyl)ethyl]amino}methyl)benzoic acid]", "values": [{"measurement": "IC50", "result": "< 1", "unit": "µM"}]}
{"smiles": "COc1ccc(CCN(Cc2ccc(C(=O)O)cc2)c2nc3cccc(C)c3s2)cc1", "note": "[Example 96, 4-({[2-(4-methoxyphenyl)ethyl](7-methyl-benzo[d]thiazol-2-yl)amino}methyl)benzoic acid]", "values": [{"measurement": "IC50", "result": "> 10", "unit": "µM"}]}
{"smiles": "COc1ccc(CCN(Cc2ccc(C(=O)O)cc2)c2nc3ccc(C)cc3s2)cc1", "note": "[Example 97, 4-({[2-(4-methoxyphenyl)ethyl](6-methyl-benzo[d]thiazol-2-yl)amino}methyl)benzoic acid]", "values": [{"measurement": "IC50", "result": "> 10", "unit": "µM"}]}
